ChEMBL document CHEMBL1144237, “Novel HCV NS5B polymerase inhibitors derived from 4-(1',1'-dioxo-1',4'-dihydro-1'lambda(6)-benzo[1',2',4']thiadiazin-3'-yl)-5-hydroxy-2H-pyridazin-3-ones. Part 5: Exploration of pyridazinones containing 6-amino-substituents” (Bioorg Med Chem Lett, 2008)

Test: Apparent permeability across human Caco-2 cell membrane
Assay type: ADME, cell-based

| Papp | Compound |
| --- | --- |
| 0.02 ×10⁻⁶ cm/s | CC(C)CCn1nc(-c2cccs2)c(O)c(C2=Nc3ccc(NS(C)(=O)=O)cc3S(=O)(=O)N2)c1=O |
| 0.22 ×10⁻⁶ cm/s | CS(=O)(=O)Nc1ccc2c(c1)S(=O)(=O)N=C(c1c(O)c(N3CCCC3)nn(CCC3CC3)c1=O)N2 |
| 0.37 ×10⁻⁶ cm/s | CC(C)(C)CCn1nc(N2CCCC2)c(O)c(C2=NS(=O)(=O)c3cc(NS(C)(=O)=O)ccc3N2)c1=O |
| 0.77 ×10⁻⁶ cm/s | CC(C)CCn1nc(N(C)C(C)C)c(O)c(C2=NS(=O)(=O)c3cc(NS(C)(=O)=O)ccc3N2)c1=O |
| 0.021 ×10⁻⁶ cm/s | CC(C)CCn1nc(N2CCOCC2)c(O)c(C2=NS(=O)(=O)c3cc(NS(C)(=O)=O)ccc3N2)c1=O |
| 0.32 ×10⁻⁶ cm/s | CC(C)CCn1nc(N2CCCC2)c(O)c(C2=Nc3ccc(NS(C)(=O)=O)cc3S(=O)(=O)N2)c1=O |
| 0.3 ×10⁻⁶ cm/s | CCN(CC)c1nn(CCC(C)C)c(=O)c(C2=NS(=O)(=O)c3cc(NS(C)(=O)=O)ccc3N2)c1O |
| 0.12 ×10⁻⁶ cm/s | CCCN(C)c1nn(CCC(C)C)c(=O)c(C2=NS(=O)(=O)c3cc(NS(C)(=O)=O)ccc3N2)c1O |
